# Measurements taken from patent US10301306B2, “Substituted dihydro-1H-pyrrolo[3,2-c]pyridin-4(5H)-ones as RIPK3 inhibitors” (BRISTOL-MYERS SQUIBB COMPANY, priority 2014, dated 2019).
# Biological target: RIPK3 (Homo sapiens (Human), UniProt Q9Y572)
# Experiment: RIPK3 HTRF Kinase Assay
# Assay type: binding
# Details: RIPK3 1 nM; HTRF probe 23 nM; 60 min at room temperature; read-out: IC50 for Inhibition of RIPK3
# Sequence of RIPK3 (Q9Y572 whole entry, species assumed): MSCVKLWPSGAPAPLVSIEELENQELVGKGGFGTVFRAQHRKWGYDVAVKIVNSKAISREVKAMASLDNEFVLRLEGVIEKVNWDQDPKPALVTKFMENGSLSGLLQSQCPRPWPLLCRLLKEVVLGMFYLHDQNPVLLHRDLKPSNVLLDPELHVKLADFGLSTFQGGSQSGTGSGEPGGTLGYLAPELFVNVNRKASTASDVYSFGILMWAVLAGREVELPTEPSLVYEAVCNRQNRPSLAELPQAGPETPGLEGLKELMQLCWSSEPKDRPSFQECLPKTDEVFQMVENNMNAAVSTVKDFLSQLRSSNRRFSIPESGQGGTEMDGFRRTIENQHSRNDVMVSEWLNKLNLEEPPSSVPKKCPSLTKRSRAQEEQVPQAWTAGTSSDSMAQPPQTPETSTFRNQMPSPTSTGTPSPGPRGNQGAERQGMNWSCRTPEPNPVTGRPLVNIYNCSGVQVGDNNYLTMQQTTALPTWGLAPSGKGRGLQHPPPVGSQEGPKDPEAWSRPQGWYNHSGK
row,SMILES,IC50 [nM]
1,CC(C)(C)OC(=O)Nc1cccc(-c2c3c(n(Cc4ccc(Cl)cc4F)c2-c2ccncc2)CCNC3=O)c1 [Example 163],31 to 100
2,CC(C)Cn1c2c(c(-c3ccc(F)cc3)c1-c1ccncc1)C(=O)NCC2 [Example 58],31 to 100
3,COc1cc(-c2c3c(n(Cc4ccc(F)cc4C#N)c2-c2ccncc2)CCNC3=O)ccn1 [Example 140],< 30
4,Cc1cscc1-c1c2c(n(Cc3ccc(F)cc3C#N)c1-c1ccncc1)CCNC2=O [Example 143],100 to 15000
5,"N#Cc1cccc(Cn2c3c(c(-c4ccc(F)cc4)c2-c2ccncc2)C(=O)NCC3)c1 [Example 2, 3-((3-(4-Fluorophenyl)-4-oxo-2-(pyridin-4-yl)-4,5,6,7-tetrahydro-1H-pyrrolo[3,2-c]pyridin-1-yl)methyl)benzonitrile]",< 30
6,O=C1NCCc2c1c(-c1ccc(F)cc1)c(-c1ccncc1)n2Cc1ccc(Cl)cc1F [Example 74],< 30
7,"CC(C)C(=O)Nc1cc(-c2c(-c3ccc(F)cc3)c3c(n2Cc2ccc(C(F)(F)F)cc2F)CCNC3=O)ccn1 [Example 7, N-(4-(1-(2-Fluoro-4-(trifluoromethyl)benzyl)-3-(4-fluorophenyl)-4-oxo-4,5,6,7-tetrahydro-1H-pyrrolo[3,2-c]pyridin-2-yl)pyridin-2-yl)isobutyramide]",100 to 15000
8,Cc1csc(-c2c3c(n(Cc4ccc(F)cc4C#N)c2-c2ccncc2)CCNC3=O)c1 [Example 142],< 30
9,Cc1cc(Cn2c3c(c(-c4cccc(NC(=O)C5CC5)c4)c2-c2ccncc2)C(=O)NCC3)n(C)n1 [Example 177],100 to 15000
10,O=C1NCCc2c1c(-c1ccc(F)cc1)c(-c1ccncc1)n2CCO [Example 82],100 to 15000
11,CC(C)C(=O)Nc1cc(-c2c(-c3ccc(F)cc3)c3c(n2CC2CCOCC2)CCNC3=O)ccn1 [Example 88],100 to 15000
12,N#Cc1cc(F)ccc1Cn1c2c(c(-c3ccc(F)cc3)c1-c1ccc3[nH]ccc3c1)C(=O)NCC2 [Example 19],100 to 15000
13,O=C1NCCc2c1c(-c1ccc(F)cc1)c(-c1ccncc1)n2CCCO [Example 69],31 to 100
14,COc1cnccc1-c1c(-c2ccc(F)cc2)c2c(n1Cc1cc(C)nn1C)CCNC2=O [Example 183],< 30
15,Cc1nc(Cn2c3c(c(-c4ccc(F)cc4)c2-c2ccncc2)C(=O)NCC3)no1 [Example 81],31 to 100
16,N#Cc1cc(F)ccc1Cn1c2c(c(-c3ccc(F)cc3)c1-c1ccnc(Cl)c1)C(=O)NCC2 [Example 22],100 to 15000
17,Cn1ccc2cc(-c3c4c(n(Cc5ccc(F)cc5C#N)c3-c3ccncc3)CCNC4=O)ccc21 [Example 118],31 to 100
18,COc1cnccc1-c1c(-c2ccc(F)cc2)c2c(n1Cc1ccc(F)cc1C#N)CCNC2=O [Example 15],31 to 100
19,O=C1NCCc2c1c(-c1ccc(F)cc1)c(-c1ccncc1)n2Cc1ccccn1 [Example 76],100 to 15000
20,Cc1nc(-c2ccc(Cn3c4c(c(-c5ccc(F)cc5)c3-c3ccncc3)C(=O)NCC4)c(F)c2)no1 [Example 48],< 30
21,O=C1NCCc2c1c(-c1cccc3ccncc13)c(-c1ccncc1)n2CC1CCOCC1 [Example 112],100 to 15000
22,O=C1NCCc2c1c(-c1cccc(C(F)(F)F)c1)c(-c1ccncc1)n2CC1CCOCC1 [Example 105],100 to 15000
23,CCOC(=O)Nc1cc(-c2c(-c3ccc(F)cc3)c3c(n2CC2CCOCC2)CCNC3=O)ccn1 [Example 95],31 to 100
24,Cc1cc(Cn2c3c(c(-c4cccc(NC(=O)Cc5ccccc5)c4)c2-c2ccncc2)C(=O)NCC3)n(C)n1 [Example 175],100 to 15000

row,SMILES,IC50 [nM]
1,COC(=O)c1cccc(-c2c3c(n(Cc4ccc(Cl)cc4F)c2-c2ccncc2)CCNC3=O)c1 [Example 167],100 to 15000
2,"O=C1NCCc2c1c(-c1ccc(F)cc1)c(-c1ccnc(Cl)c1)n2Cc1ccc(C(F)(F)F)cc1F [Example 6, 2-(2-Chloropyridin-4-yl)-1-(2-fluoro-4-(trifluoromethyl)benzyl)-3-(4-fluorophenyl)-6,7-dihydro-1H-pyrrolo[3,2-c]pyridin-4(5H)-one]",100 to 15000
3,CCn1c2c(c(-c3ccc(F)cc3)c1-c1ccncc1)C(=O)NCC2 [Example 62],100 to 15000
4,"CC1(C)CNC(=O)c2c1[nH]c(-c1ccncc1)c2-c1ccc(F)cc1 [Example 153, 3-(4-Fluorophenyl)-7,7-dimethyl-2-(pyridin-4-yl)-6,7-dihydro-1H-pyrrolo[3,2-c]pyridin-4(5H)-one]",< 30
5,CNc1cc(-c2c(-c3ccc(F)cc3)c3c(n2Cc2ccc(C(F)(F)F)cc2F)CCNC3=O)ccn1 [Example 10],100 to 15000
6,COc1ccc(-c2c3c(n(Cc4ccc(F)cc4C#N)c2-c2ccncc2)CCNC3=O)cc1OC [Example 113],100 to 15000
7,COc1ccc(C(=O)Nc2cc(-c3c(-c4ccc(F)cc4)c4c(n3CC3CCOCC3)CCNC4=O)ccn2)cc1 [Example 89],100 to 15000
8,N#Cc1cc(F)ccc1Cn1c2c(c(-c3ccc(F)c(F)c3)c1-c1ccncc1)C(=O)NCC2 [Example 115],< 30
9,Cc1cc(-c2c3c(n(Cc4ccc(Cl)cc4F)c2-c2ccncc2)CCNC3=O)ccn1 [Example 168],100 to 15000
10,CC(C)(C)Cn1c2c(c(-c3ccc(F)cc3)c1-c1ccncc1)C(=O)NCC2 [Example 61],100 to 15000
11,N#Cc1cccc(F)c1Cn1c2c(c(-c3ccc(F)cc3)c1-c1ccncc1)C(=O)NCC2 [Example 77],< 30
12,Cc1cc(Cn2c3c(c(-c4ccc(F)cc4)c2-c2ccncc2F)C(=O)NCC3)n(C)n1 [Example 182],31 to 100
13,Cc1cc(Cn2c3c(c(-c4cccc(NC(=O)c5ccccc5)c4)c2-c2ccncc2)C(=O)NCC3)n(C)n1 [Example 176],100 to 15000
14,COc1cc(C(F)(F)F)ccc1Cn1c2c(c(-c3ccc(F)cc3)c1-c1ccncc1)C(=O)NCC2 [Example 67],31 to 100
15,"CC1(C)CNC(=O)c2c(-c3ccc(F)cc3)c(-c3ccncc3)n(CC3CCOCC3)c21 [Example 152, 3-(4-Fluorophenyl)-7,7-dimethyl-2-(pyridin-4-yl)-1-((tetrahydro-2H-pyran-4-yl)methyl)-6,7-dihydro-1H-pyrrolo[3,2-c]pyridin-4(5H)-one]",100 to 15000
16,N#Cc1cc(F)ccc1Cn1c2c(c(/C=C/c3ccccc3)c1-c1ccncc1)C(=O)NCC2 [Example 145],31 to 100
17,N#CCn1c2c(c(-c3ccc(F)cc3)c1-c1ccncc1)C(=O)NCC2 [Example 49],100 to 15000
18,Cc1cc(-c2c(-c3ccc(F)cc3)c3c(n2Cc2ccc(F)cc2C#N)CCNC3=O)ccn1 [Example 20],31 to 100
19,O=C1NCCc2c1c(-c1ccc(F)cc1)c(-c1ccncc1)n2Cc1cc(F)cc(C(F)(F)F)c1 [Example 41],< 30
20,O=C1NCCc2c1c(-c1ccncc1F)c(-c1ccncc1)n2Cc1ccc(Cl)cc1F [Example 166],100 to 15000
21,Cc1cc(Cn2c3c(c(-c4ccc(F)cc4)c2-c2ccncc2)C(=O)NCC3)ccc1F [Example 46],< 30
22,O=C1NCCc2c1c(-c1ccc(F)cc1)c(-c1ccncc1)n2Cc1ccc(F)cc1F [Example 64],< 30
23,N#Cc1cc(F)ccc1Cn1c2c(c(-c3ccsc3)c1-c1ccncc1)C(=O)NCC2 [Example 128],< 30
24,O=C1NCCc2c1c(-c1ccc(F)cc1)c(-c1ccncc1)n2CC(=O)N1CCCC1 [Example 70],31 to 100

# Same assay, conditions: read-out: IC50 for Inhibition of RIPK3
row,SMILES,IC50 [nM]
1,N#Cc1cc(F)ccc1Cn1c2c(c(-c3ccccc3-c3ccccc3)c1-c1ccncc1)C(=O)NCC2 [Example 125],100 to 15000
